Source: patent US12459953B2, “TREM2 modulators” (Muna Therapeutics ApS, priority 2024, dated 2025)

Target: T1, Human TREM2 (Homo sapiens, UniProt Q9NZC2)
T1 construct: expressed in transfected cells
Test: Human TREM2 activity by cellular phosphorylation of Syk (AlphaLISA SureFire Ultra p-SYK) in HEK293/DAP12+TREM2 stable cell line
Type: cell-based
Details: HEK293/DAP12+TREM2 cells; for Emax: maximal response relative to the maximal response of the reference agonist (8-(4-chloro-2-fluorophenyl)-2,3-dimethyl-6-[(2S)-2-(1-methyl-1H-pyrazol-4-yl)morpholin-4-yl]-3H,4H-[1,3]diazino[5,4-d]pyrimidin-4-one); for EC50: phospho-Syk AlphaScreen signal, 30 min incubation, concentration giving 50% of maximal response
Source text: Human TREM2, in vitro Measurement of Triggering Receptor Expressed on Myeloid Cells 2 activity using cellular phosphorylation of Spleen Tyrosine Kinase (“Syk”) Assay
HEK-293 cells were co-transfected with separate plasmids encoding TREM2 and DAP12 to generate a stable cell line. After antibiotic selection, functional clone pool analysis and two successive limiting dilutions, the final clone
“HEK293/DAP12+TREM2” underwent a qPCR analysis and a pharmacological validation.
TREM2 signaling through DAP12 was monitored in the HEK293/DAP12+TREM2 stable cell line by measuring the phosphorylation levels of the Syk kinase using the commercially available AlphaLISA SureFire Ultra p-SYK (Tyr525/526) Assay Kit (PerkinElmer #ALSU-PSYK), based on the Perkin Elmer AlphaScreen/AlphaLISA technology.
Compounds are transferred to the test plate and tested in full dose response, 8 concentrations in quadruplicate data points. Compound serial dilutions were performed at Cybi-Felix instrument in 100% DMSO and the dose response curves were assembled in automated fashion in 384MPT at Hamilton STARIet instrument. All the stock solutions were prepared at 20 mM in 100% DMSO. For compounds testing, the starting concentration was 100 μM, dilution steps 1:6. A different concentration's range was adapted for compound's activity based on the preliminary results. Finally, a 384MPT reformatted for all compounds at 8 concentrations, quadruplicates, was used as “mother to child” process with a CyBi®-Well dispenser in which 1 μL of each compound was moved into a destination plate pre-filled with 65.6 μL of EMEM cell culture medium (BIOWHITTAKER_cat.BE12-125F), thus obtaining 3× concentrated compounds working solution. In columns 1-2 and 23-24 the control wells were added. In particular, dose response curves of a reference control agonist were included in column 1 and 24 as reference control agonist (Reference control agonists used include Human TREM2 polyclonal Antibody AF1828: R&D Systems; Human TREM2 monoclonal Antibody MAB1828: R&D Systems). The dose response curves were tested starting at 30 μM, dilution step 1:6. Both “source” compound plate and “destination” compound plate were barcoded and a relationship between the two plates was thus generated.
HEK293/DAP12+TREM2 cells were cultured in EMEM medium supplemented with IX Penicillin/Streptomycin (BIOWHITTAKER_cat.DE17-602E), ULTRAGLUTAMINE I 200 mM, 10% Fetal Bovine Serum plus antibiotics referred to as “HEK293 Culture Medium”. The day before the experiment, cells were detached by gentle wash with DPBS, followed by 5 min incubation at 37° C. with Trypsin solution. Cells were then diluted in HEK293 Culture Medium without antibiotics, counted and seeded into 384-well poly-D-Lysine coated microplates black/clear bottom (GREINER 781946) at a density of 10,000 cells/well in 25 μL/well by the use of a MATRIX WellMate dispenser. Plates were placed into a humidified cell culture incubator at 37° C. with 5% CO2 until the experimental day. 20-24 hours after seeding mature medium was removed and replaced with 10 μL/well of EMEM cell medium supplemented with 0.1% Pluronic F-68 non-ionic surfactant (Thermofisher, 24040032), referred to as “Assay Buffer”, using the CyBi®-Well instrument. Then 5 μL/well of Assay Buffer containing 3× concentrated test compounds or the reference control agonist (in 0.5% final DMSO concentration) were added to the cells with the CyBi®-Well instrument. Cell plates were incubated for 30 min into a humidified cell culture incubator at 37° C. with 5% CO2,then the medium was removed by manually discard. 20 μL/well of lysis buffer were dispensed using the CyBi®-Well instrument and plates were incubated for 10 min at room temperature on a plate shaker (350 rpm). Then, 10 μL/well of lysate were transferred to the Alpha plates. The CyBi®-Well instrument was used to dispense 5 μL/well of AlphaLISA Acceptor Bead Solution in IX Immunoassay buffer (Perkin Elmer ALOOOF). […]

T1 sequence (Q9NZC2 19-230): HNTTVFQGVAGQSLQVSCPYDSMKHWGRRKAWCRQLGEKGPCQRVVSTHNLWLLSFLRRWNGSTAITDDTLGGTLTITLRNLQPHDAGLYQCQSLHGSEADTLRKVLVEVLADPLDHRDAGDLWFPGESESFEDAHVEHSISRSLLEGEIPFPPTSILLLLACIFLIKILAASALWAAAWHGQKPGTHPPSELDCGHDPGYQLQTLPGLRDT
T1 sequence (O43914 22-113 partner): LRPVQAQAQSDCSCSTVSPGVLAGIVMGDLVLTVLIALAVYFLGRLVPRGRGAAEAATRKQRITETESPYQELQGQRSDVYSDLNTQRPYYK

Structure (SMILES)	Emax [%]	EC50 [nM]
C[C@@H]1CN(c2nc(-c3ccc(F)cc3F)c3ncn(C)c(=O)c3n2)C[C@H](c2cnn(C3CC3)c2)O1	75 to 110	10 to 100
Cc1nc2c(-c3ccc(F)cc3F)nc(N3C[C@@H](C)O[C@@H](c4cnn(C5CC5)c4)C3)nc2c(=O)n1C	75 to 110	1 to 10
COc1ccc(-c2nc(N3C[C@@H](C)O[C@@H](c4cnn(C5CC5)c4)C3)nc3c(=O)n(C)c(C(F)(F)F)nc23)c(F)c1 (single isomer, unassigned) [Example 4]	75 to 110	< 1
C[C@@H]1CN(c2nc(-c3ccc(C#N)cc3F)c3nc(C(F)(F)F)n(C)c(=O)c3n2)C[C@H](c2cnn(C3CC3)c2)O1 (single isomer, unassigned) [Example 5A]	> 110	< 1
C[C@H]1CN(c2nc(-c3ccc(C#N)cc3F)c3nc(C(F)(F)F)n(C)c(=O)c3n2)C[C@@H](c2cnn(C3CC3)c2)O1 (single isomer, unassigned) [Example 5B]	> 110	1 to 10
C[C@@H]1CN(c2nc(-c3ccc(C#N)cc3F)c3nc(C(F)(F)F)n(C)c(=O)c3n2)C[C@H](c2cnn(C)c2)O1 (single isomer, unassigned) [Example 6A]	75 to 110	1 to 10
C[C@H]1CN(c2nc(-c3ccc(C#N)cc3F)c3nc(C(F)(F)F)n(C)c(=O)c3n2)C[C@@H](c2cnn(C)c2)O1 (single isomer, unassigned) [Example 6B]	75 to 110	1 to 10
Cn1cc([C@H]2CN(c3nc(-c4ccc(C#N)cc4F)c4nc(C(F)(F)F)n(C)c(=O)c4n3)CC(F)(F)O2)cn1 (single isomer, unassigned) [Example 7A]	> 110	< 1
Cn1cc([C@@H]2CN(c3nc(-c4ccc(C#N)cc4F)c4nc(C(F)(F)F)n(C)c(=O)c4n3)CC(F)(F)O2)cn1 (single isomer, unassigned) [Example 7B]	75 to 110	1 to 10
COc1cc([C@@H]2CN(c3nc(-c4ccc(C#N)cc4F)c4nc(C(F)(F)F)n(C)c(=O)c4n3)CCO2)ccn1 (single isomer, unassigned) [Example 8A]	75 to 110	10 to 100
COc1cc([C@H]2CN(c3nc(-c4ccc(C#N)cc4F)c4nc(C(F)(F)F)n(C)c(=O)c4n3)CCO2)ccn1 (single isomer, unassigned) [Example 8B]	75 to 110	< 1
COc1cc([C@@H]2CN(c3nc(-c4ccc(C#N)cc4F)c4nc(C(F)(F)F)n(C)c(=O)c4n3)C[C@H](C)O2)ccn1 (single isomer, unassigned) [Example 9A]	75 to 110	< 1
COc1cc([C@H]2CN(c3nc(-c4ccc(C#N)cc4F)c4nc(C(F)(F)F)n(C)c(=O)c4n3)C[C@@H](C)O2)ccn1 (single isomer, unassigned) [Example 9B]	75 to 110	< 1
C[C@@H]1CN(c2nc(-c3ccc(C#N)cc3)c3nc(C(F)(F)F)n(C)c(=O)c3n2)C[C@H](c2cnn(C)c2)O1 (single isomer, unassigned) [Example 10A]	75 to 110	< 1
C[C@H]1CN(c2nc(-c3ccc(C#N)cc3)c3nc(C(F)(F)F)n(C)c(=O)c3n2)C[C@@H](c2cnn(C)c2)O1 (single isomer, unassigned) [Example 10B]	75 to 110	1 to 10
C[C@@H]1CN(c2nc(-c3ccc(C#N)cc3)c3nc(C(F)(F)F)n(C)c(=O)c3n2)C[C@H](c2cnn(C3CC3)c2)O1 (single isomer, unassigned) [Example 11A]	75 to 110	< 1
C[C@H]1CN(c2nc(-c3ccc(C#N)cc3)c3nc(C(F)(F)F)n(C)c(=O)c3n2)C[C@@H](c2cnn(C3CC3)c2)O1 (single isomer, unassigned) [Example 11B]	75 to 110	1 to 10
COc1cc([C@H]2CN(c3nc(-c4ccc(F)cc4F)c4nc(C(F)(F)F)n(C)c(=O)c4n3)CCO2)ccn1 (single isomer, unassigned) [Example 12A]	75 to 110	< 1
COc1cc([C@@H]2CN(c3nc(-c4ccc(F)cc4F)c4nc(C(F)(F)F)n(C)c(=O)c4n3)CCO2)ccn1 (single isomer, unassigned) [Example 12B]	75 to 110	10 to 100
C[C@@H]1CN(c2cc3c(=O)n(C)c(C(F)(F)F)nc3c(-c3ccc(C#N)cc3F)n2)C[C@H](c2cnn(C3CC3)c2)O1 (single isomer, unassigned) [Example 13A]	75 to 110	< 1
C[C@H]1CN(c2cc3c(=O)n(C)c(C(F)(F)F)nc3c(-c3ccc(C#N)cc3F)n2)C[C@@H](c2cnn(C3CC3)c2)O1 (single isomer, unassigned) [Example 13B]	75 to 110	1 to 10
Cn1cc([C@H]2CN(c3cc4c(=O)n(C)c(C(F)(F)F)nc4c(-c4ccc(C#N)cc4F)n3)CC(F)(F)O2)cn1 (single isomer, unassigned) [Example 14A]	75 to 110	1 to 10
Cn1cc([C@@H]2CN(c3cc4c(=O)n(C)c(C(F)(F)F)nc4c(-c4ccc(C#N)cc4F)n3)CC(F)(F)O2)cn1 (single isomer, unassigned) [Example 14B]	75 to 110	10 to 100
Cn1cc([C@H]2CN(c3nc(-c4ccc(C#N)cc4F)c4nc(C(F)(F)F)n(C)c(=O)c4n3)CCO2)cn1 [Example 1, (S)-3-fluoro-4-(7-methyl-2-(2-(1-methyl-1H-pyrazol-4-yl)morpholino)-8-oxo-6-(trifluoromethyl)-7,8-dihydropyrimido[5,4-d]pyrimidin-4-yl)benzonitrile]	75 to 110	< 1
COc1ccc(-c2nc(N3CCO[C@@H](c4cnn(C)c4)C3)nc3c(=O)n(C)c(C(F)(F)F)nc23)c(F)c1 [Example 2, (S)-8-(2-fluoro-4-methoxyphenyl)-3-methyl-6-(2-(1-methyl-1H-pyrazol-4-yl)morpholino)-2-(trifluoromethyl)pyrimido[5,4-d]pyrimidin-4(3H)-one]	75 to 110	1 to 10
Cn1cc([C@H]2CN(c3nc(-c4ccc(C#N)cc4)c4nc(C(F)(F)F)n(C)c(=O)c4n3)CCO2)cn1 [Example 3, (S)-4-(7-methyl-2-(2-(1-methyl-1H-pyrazol-4-yl)morpholino)-8-oxo-6-(trifluoromethyl)-7,8-dihydropyrimido[5,4-d]pyrimidin-4-yl)benzonitrile]	< 75	1 to 10
Cn1cc([C@H]2CN(c3cc4c(=O)n(C)c(C(F)(F)F)nc4c(-c4ccc(C#N)cc4F)n3)CCO2)cn1 [Example 15, (S)-3-fluoro-4-(3-methyl-6-(2-(1-methyl-1H-pyrazol-4-yl)morpholino)-4-oxo-2-(trifluoromethyl)-3,4-dihydropyrido[3,4-d]pyrimidin-8-yl)benzonitrile]	75 to 110	1 to 10
